These results are taken from article PMC7823827, “β-Galactosidases from a Sequence-Based Metagenome: Cloning, Expression, Purification and Characterization” (Microorganisms, 2020).

The assay relates to T1, βgal5.
T1 construct: gene AUR.contig-100_1620_7; GH42; N-terminal 6-His with TEV site (pET-TEV), E. coli BL21(DE3), Ni-NTA
Kind of assay: nitrophenol release, absorbance […] nm. The settings on record: buffer Z (phosphate, KCl, MgSO4), 30 °C; 2.5-20 mM substrate; read-out: Km (mM) / ONPG. It counts as biochemical.

Molecules are shown by their SMILES.

With `O=[N+]([O-])c1ccccc1O[C@@H]1O[C@H](CO)[C@H](O)[C@H](O)[C@H]1O` [2-nitrophenyl-β-D-galactopyranoside], the Km stood at 14.5 mM.
